Values of other authors as cited in US11839619B2, “Methods for treatment of pediatric systemic mastocytosis” (The Regents of the University of California, priority 2019, dated 2023).

Conditions: in vivo

For CO[C@@H]1[C@H](N(C)C(=O)c2ccccc2)C[C@H]2O[C@]1(C)n1c3ccccc3c3c4c(c5c6ccccc6n2c5c31)C(=O)NC4 [midostaurin], which common side effects is on record?
The common side effects was “nausea, vomiting, diarrhea, and thrombocytopenia”.
